Results published in patent publication US20030049204A1, “Individualization of therapy with gastroesophageal reflux disease agents” (McGill University, priority 2001, published 2003).
Like-named read-outs stand apart in the source and are kept apart here. Marks after values point to notes of the source that are not given here.

Key:
AAMU-Ab = experiment: Competitive antigen ELISA, cross-reactivity of AAMU-Ab; type: binding, rabbit; conditions: 0 = absence of inhibition or inhibition no higher than 40% at highest concentration tested (5 × 10^−3 M)
Experimental: (§1) Four mature females New Zealand white rabbits (Charles River Canada, St-Constant, Que., Canada) are used for antibody production. The protocol employed in this study was approved by the McGill University Animal Care Committee in accordance with the guidelines from the Canadian Council on Animal Care. Antibodies of the present invention may be monoclonal or polyclonal antibodies.
(§2) A 0.5 mL aliquot of the emulsion ([…] of antigen) is injected per rabbit intramuscularly or subcutaneously. Rabbits are subsequently boosted at intervals of three weeks with […] of antigen emulsified in incomplete Freund's adjuvant. […] Antisera are stored at 4° C. in the presence of 0.01% sodium azide.
(§3) Buffers and water without additives are filtered through millipore filters and kept for 1 week. BSA, antibodies, Tween™ 20 and horse radish peroxidase conjugates are added to these buffers and water just prior to use. Urine samples are usually collected 4 hours after drinking a cup of coffee (instant or brewed with approximately 100 mg of caffeine per cup) and stored at −80° C. The urine samples are diluted 10 times with sodium phosphate buffer (620 mosm, pH 7.50) and are subsequently diluted with water to give concentrations of AAMU and 1X no higher than 3×10^−6 M in the ELISA. All the pipettings are done with an eight-channel pipette, except those of the antibody and sample solutions. Starting with the last well, 100 μL of a carbonate buffer (100 mM, pH 9.6) containing 2.5 μg mL-^1 antibodies are added to each well. After 90 min. at room temperature, the wells are washed three times with 100 mL of TPB: isotonic sodium phosphate buffer (310 mosm, pH 7.50) containing 0.05% Tween™ 20.
(§4) After the initial wash, unoccupied sites are blocked by incubation for 90 min. at room temperature with 100 μL TBP containing 3% BSA. The wells are washed four times with 100 μL TPB. […] The microplate is gently shaken with an orbital shaker at room temperature for 3-4 hours. The wells are washed three times with 100 μL TPB containing 1% BSA and three times with water containing 0.05% Tween™ 20. To the washed plate is added 150 μL of a substrate buffer composed of citric acid (25 mM) and sodium phosphate dibasic buffer (50 mM, pH 5.0) containing 0.06% hydrogen peroxide and 0.04% o-phenylenediamine hydrochloride.
as §3, with “were” for “are”, “They were” for “The urine samples are”, “mL^−1” for “mL-^1”, “was pipetted.” for “are added to each well.”, “μL” for “mL”
(§5) After the initial wash, unoccupied sites were blocked by incubation for 90 min. at room temperature with 100 μL TBP containing 3% BSA. The wells were washed four times with 100 μL TPB. […] The microplate was gently shaken with an orbital shaker at room temperature for 3-4 hours. The wells were washed three times with 100 μL with TPB containing 1% BSA and three times with water containing 0.05% Tween™ 20. To the washed plate was added 150 μL of a substrate buffer composed of citric acid (25 mM) and sodium phosphate dibasic buffer (50 mM, pH 5.0) containing 0.06% hydrogen peroxide and 0.04% o-phenylenediamine hydrochloride.

1X-Ab = experiment: Competitive antigen ELISA, cross-reactivity of 1X-Ab; type: binding, rabbit; conditions: 0 = absence of inhibition or inhibition no higher than 40% at highest concentration tested (5 × 10^−3 M)
Experimental: as §1, §2, §3, §4
as §3, with “were” for “are”, “They were” for “The urine samples are”, “mL^−1” for “mL-^1”, “was pipetted.” for “are added to each well.”, “μL” for “mL”
as §5

[1] = especially less severe degrees of esophagitis; cited from earlier work
[2] = cited from earlier work
[3] = biological target: T1, rapid component of the delayed rectifying K^+ current (lkr) (Oryctolagus cuniculus, UniProt Q8WNY2); conditions: in vivo anesthetized guinea pig and rabbit; in vitro isolated rabbit preparations; cited from earlier work
T1 construct: in vitro isolated rabbit Purkinje fibers and ventricular papillary muscle and isolated rabbit ventricular myocyte models; from tissue; host or cells: rabbit Purkinje fibers, ventricular papillary muscle and ventricular myocytes; also anesthetized guinea pig and rabbit in vivo
T1 sequence (Q8WNY2 1-1161): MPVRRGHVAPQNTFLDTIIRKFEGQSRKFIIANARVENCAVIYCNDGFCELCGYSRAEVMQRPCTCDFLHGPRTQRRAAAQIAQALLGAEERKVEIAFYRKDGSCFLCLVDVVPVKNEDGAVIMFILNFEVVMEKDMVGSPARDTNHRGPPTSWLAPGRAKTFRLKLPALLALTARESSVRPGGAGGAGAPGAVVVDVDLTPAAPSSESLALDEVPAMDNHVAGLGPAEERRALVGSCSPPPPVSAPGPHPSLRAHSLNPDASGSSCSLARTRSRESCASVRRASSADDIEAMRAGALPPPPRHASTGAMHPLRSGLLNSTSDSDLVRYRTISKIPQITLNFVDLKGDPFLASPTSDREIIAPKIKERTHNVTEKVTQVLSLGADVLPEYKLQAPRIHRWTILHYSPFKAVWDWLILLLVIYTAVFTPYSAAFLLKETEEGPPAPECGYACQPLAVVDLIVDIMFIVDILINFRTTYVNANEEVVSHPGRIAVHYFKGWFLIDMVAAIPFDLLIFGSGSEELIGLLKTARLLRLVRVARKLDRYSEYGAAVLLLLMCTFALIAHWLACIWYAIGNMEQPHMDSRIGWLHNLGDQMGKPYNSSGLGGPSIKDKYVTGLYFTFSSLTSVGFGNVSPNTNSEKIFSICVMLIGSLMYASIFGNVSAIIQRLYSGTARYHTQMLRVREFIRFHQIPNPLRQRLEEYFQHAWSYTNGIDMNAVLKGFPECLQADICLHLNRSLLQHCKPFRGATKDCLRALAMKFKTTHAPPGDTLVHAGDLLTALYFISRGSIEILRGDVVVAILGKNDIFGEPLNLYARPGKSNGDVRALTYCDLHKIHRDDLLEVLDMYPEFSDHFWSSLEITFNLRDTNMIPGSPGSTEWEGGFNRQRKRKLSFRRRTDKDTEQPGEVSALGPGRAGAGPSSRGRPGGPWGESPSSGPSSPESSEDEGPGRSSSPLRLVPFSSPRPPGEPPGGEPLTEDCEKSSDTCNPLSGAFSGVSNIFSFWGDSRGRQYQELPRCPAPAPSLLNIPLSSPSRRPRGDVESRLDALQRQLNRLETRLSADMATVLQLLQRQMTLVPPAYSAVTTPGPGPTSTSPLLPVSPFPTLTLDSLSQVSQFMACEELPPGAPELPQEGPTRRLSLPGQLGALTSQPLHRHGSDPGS

[4] = in vivo; cited from earlier work
[5] = biological target: serotonin-4 (5-HT4) receptor (Homo sapiens, UniProt Q13639); conditions: in vitro; cited from earlier work
[6] = tested on: plasma proteins, mainly albumin; conditions: cited from earlier work
[7] = cited from earlier work; remark: listed apart in the source

serotonin-4 (5-HT4) receptor, sequence (Q13639 whole entry, species assumed): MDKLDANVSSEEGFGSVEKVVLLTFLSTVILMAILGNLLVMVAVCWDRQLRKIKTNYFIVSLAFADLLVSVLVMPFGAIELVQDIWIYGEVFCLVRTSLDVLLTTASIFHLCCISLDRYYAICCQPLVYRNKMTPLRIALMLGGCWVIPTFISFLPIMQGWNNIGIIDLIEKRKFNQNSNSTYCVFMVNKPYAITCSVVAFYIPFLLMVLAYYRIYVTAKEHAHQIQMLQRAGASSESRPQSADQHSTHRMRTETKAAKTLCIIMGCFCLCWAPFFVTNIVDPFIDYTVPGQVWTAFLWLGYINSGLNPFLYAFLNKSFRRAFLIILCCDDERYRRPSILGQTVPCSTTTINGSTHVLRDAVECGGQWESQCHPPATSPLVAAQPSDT

SMILES	% Cross-Reaction AAMU-Ab (AAMU-Ab)	% Cross-Reaction 1X-Ab (1X-Ab) [%]	also measured
Cn1c(=O)c2c(ncn2C)n(C)c1=O [1,3,7-Trimethyl Xanthine (Caffeine), 1,3,7-Trimethyl Xanthine]	0%	0	
Cn1c(=O)c2[nH]cnc2n(C)c1=O [1,3-Dimethyl Xanthine (Theophylline), 1,3-Dimethyl Xanthine]	0%	0.2	
Cn1c(=O)[nH]c2ncn(C)c2c1=O [1,7-Dimethyl Xanthine (Paraxanthine), 1,7-Dimethyl Xanthine]	0%	0.5	
Cn1c(=O)[nH]c2[nH]c(=O)n(C)c2c1=O [1,7-Dimethyluric acid]	0%	0	
Cn1c(=O)[nH]c2nc[nH]c2c1=O [1-Methyl Xanthine (1X), 1-Methyl Xanthine]	0%	100	
Cn1c(=O)[nH]c2[nH]c(=O)[nH]c2c1=O [1-Methyluric acid]	0%	11	
Cn1cnc2c1c(=O)[nH]c(=O)n2C [3,7-Dimethyl Xanthine (Theobromine), 3,7-Dimethyl Xanthine]	0%	0	
Cn1c(=O)[nH]c(=O)c2[nH]cnc21 [3-Methyl Xanthine]	0%	0	
CC(=O)Nc1c(N)n(C)c(=O)n(C)c1=O [5-Acetamino-6-amino-1,3-dimethyluracil]	0%	0	
CC(=O)Nc1c(N)n(C)c(=O)[nH]c1=O [5-Acetamino-6-amino-1-methyluracil]	100%	0	
CC(=O)Nc1c(N)[nH]c(=O)[nH]c1=O [5-Acetamino-6-amino-uracil]	0.6%	0	
Cn1cnc2[nH]c(=O)[nH]c(=O)c21 [7-Methyl Xanthine]	0%	0	
Cc1nc2[nH]c(=O)[nH]c(=O)c2[nH]1 [8-Methyl Xanthine]	0%	0	
COc1cc(N)c(Cl)cc1C(=O)NC1CCN(CCCOc2ccc(F)cc2)CC1OC (centres unmarked) [Cisapride]			long-term control of GERD, individuals [1]: up to 50%; half-life ([2]; following intravenous (IV) administration): up to 20 hours; absolute bioavailability ([2]; in vivo): 35-40%; plasma clearance ([2]; in vivo): about 100 ml/min; volume of distribution ([2]; in vivo): about 180 L; unmetabolized drug accounted for in urinary and fecal recovery ([2]; oral administration): less than 10%; effect on cardiac repolarization [3]: prolonged cardiac repolarization without slowing conduction; deaths among reports of heart rhythm abnormalities [4]: 80; diarrhea, individuals affected [4]: about 10%; reports of heart rhythm abnormalities [4]: at least 341; activity at serotonin-4 (5-HT4) receptor [5]: receptor agonist; binding to plasma proteins [6]: 97.5-98%
Nc1nc2nc[nH]c2c(=O)[nH]1 [Guanine]	0%	0	
O=c1[nH]cnc2nc[nH]c12 [Hypoxanthine]	0%	0	
O=c1cc[nH]c(=O)[nH]1 [Uracil]	0%	0	
O=c1[nH]c(=O)c2[nH]c(=O)[nH]c2[nH]1 [Uric acid]	0%	0	
O=c1[nH]c(=O)c2[nH]cnc2[nH]1 [Xanthine]	0^a %	0	
Nc1ccc(S(=O)(=O)c2ccc(N)cc2)cc1 [dapsone]			adverse reactions ([7]; fast acetylators): 17%; adverse reactions ([7]; slow acetylators): 46%
